Laboratory results published in patent publication US20250188480A1, “AGENT FOR ENHANCING PRODUCTION OF VIRAL VECTOR AND METHOD FOR PRODUCING VIRAL VECTOR” (priority 2022, published 2025).
Entries after “also recorded” stand apart in the source; their conditions may differ.

How the values were obtained:
[1] = system: HEK293 cells producing rAAV1; assay: Evaluation of AAV vector-producing ability by treatment with chemical substance (virus titer by qPCR); format: cell-based, human; conditions: for effects of enhancing the amount of production of AAV vectors (v.g.): HEK293 cells, serum-free E-MEM supplemented with the substance at various concentrations, culture for 3 days, vs untreated control
Procedure: The cells of the immortalized cell line derived from the human embryonic kidney (HEK293 cells) purchased from ATCC were cultured in E-MEM supplemented with 10% fetal bovine serum, penicillin, and streptomycin at 37° C. in the presence of 5% CO2.
The recombinant adeno-associated virus 1 (rAAV1) was prepared with the use of 3 types of plasmids: pAAV-ZsGreen1 (TaKaRa Bio), pAAV2/1, and pHelper. A mixture of 3 types of plasmids for preparation of rAAV1 was adjusted to bring the mixing ratio of DNA to Polyethylenimine Max (PEI: Polysciences) (DNA: PEI) to 1:2 in OPTI-MEM, and the reaction was allowed to proceed at room temperature for 15 minutes. After 90% or higher confluent HEK293 cells were transfected with E-MEM supplemented with 10% FBS for 6 hours, culture was performed in serum-free E-MEM to prepare the AAV type 1 vector.
Genome DNA of rAAV1 was extracted to measure the virus titer. Specifically, the culture supernatant was collected and treated with benzonase at 37° C. for 1 hour, and the viral genome DNA was extracted and purified using the DNeasy Blood & Tissue kit (QIAGEN). The virus titer was measured by real-time PCR in triplicate. qPCR was performed using primers targeting Zs-Green 1.
The virus titers achieved with the use of the chemical substances were compared with the virus titer of the control cells treated with serum-free E-MEM not supplemented with chemical substances.

HEK293 cells = conditions: treated for 5 days; HEK293 cells transduced at 1×10^5 v.g./cell, green fluorescence 3 days thereafter, vs vector without treatment

Compound | effects of enhancing the amount of production of AAV vectors (v.g.) [1] | amount of production of AAV vectors (v.g.) with the elapse of time ([1]; time after initiation of vector production, observed for 4 to 7 days) | infectious ability of the rAAV vector produced by treatment (HEK293 cells)
[NH3+][Pt-2]1([NH3+])[O]C(=O)C2(CCC2)C(=O)[O]1 [Carboplatin] | has effects of enhancing the amount of production of AAV vectors; also recorded: effects of enhancing production of rAAV vectors can be achieved | increasing with the elapse of time | retains the infectious ability equivalent to that of the AAV vector prepared without treatment
N.N.[Cl][Pt][Cl] [Cisplatin] | has effects of enhancing the amount of production of AAV vectors; also recorded: effects of enhancing production of rAAV vectors can be achieved | – | –
[NH2][Pt]1([NH2])[O]CC(=O)[O]1 [Nedaplatin] | has effects of enhancing the amount of production of AAV vectors; also recorded: effects of enhancing production of rAAV vectors can be achieved | – | –
